From patent US8765779B2, “Tricyclic derivatives and their pharmaceutical use and compositions” (Cephalon, Inc., priority 2009, dated 2014) come the findings set out here.

The structures appear in SMILES notation. Structures can show the parent of a compound that is named as a salt.

`NC(=O)COc1cccc(S(=O)(=O)c2ccc3c(c2)OC2CNCCC32)c1` (centres unmarked) (as salt: HCl) [Example 563] registered a melting point of 237 to 239 °C.

`O=C(COc1cccc(S(=O)(=O)c2ccc3c(c2)OC2CNCCC32)c1)N1CCCC1` (centres unmarked) (as salt: HCl) [Example 564]: the melting point fell in the range of 195 to 196 °C.

Turning to `Cc1cc(COc2cccc(S(=O)(=O)c3ccc4c(c3)OC3CNCCC43)c2)no1` (centres unmarked) (as salt: HCl) [Example 565], the melting point was 215 to 217 °C.

With `Cc1c(OCc2cccnc2)cccc1S(=O)(=O)c1ccc2c(c1)OC1CNCCC21` (centres unmarked) (as salt: HCl) [Example 566], the melting point lay within 179 to 182 °C.

The compound `O=S(=O)(c1cccc(OCc2cnccn2)c1)c1ccc2c(c1)OC1CNCCC21` (centres unmarked) (as salt: HCl) [Example 567] registered a melting point of 244 to 245 °C.

The compound `O=S(=O)(c1cccc(OCCCO)c1)c1ccc2c(c1)OC1CNCCC21` (centres unmarked) (as salt: HCl) [Example 568] had a melting point of 206 to 209 °C.

Regarding `Cc1nc(COc2cccc(S(=O)(=O)c3ccc4c(c3)OC3CNCCC43)c2)cs1` (centres unmarked) (as salt: HCl) [Example 569], the melting point fell in the range of 205 to 208 °C.

The compound `O=S(=O)(c1cccc(OCC2CCOCC2)c1)c1ccc2c(c1)OC1CNCCC21` (centres unmarked) (as salt: HCl) [Example 570, 7-{[3-(tetrahydro-2H-pyran-4-ylmethoxy)phenyl]sulfonyl}-1,2,3,4,4a,9a-hexahydro[1]benzofuro[2,3-c]pyridine] registered a melting point of 188 to 190 °C.

Turning to `O=S(=O)(c1cccc(OC2CCOCC2)c1)c1ccc2c(c1)OC1CNCCC21` (centres unmarked) (as salt: HCl) [Example 571], the melting point is 184 to 186 °C.

In turn, `CCCOc1cccc(S(=O)(=O)c2ccc3c(c2)OC2CNCCC32)c1` (centres unmarked) (as salt: HCl) [Example 572] showed a melting point of 210 to 213 °C.

In turn, `O=S(=O)(c1cccc(OCCn2cccc2)c1)c1ccc2c(c1)OC1CNCCC21` (centres unmarked) (as salt: HCl) [Example 573] came in with a melting point of 233 to 234 °C.

Consider `N#CCCCCOc1cccc(S(=O)(=O)c2ccc3c(c2)OC2CNCCC32)c1` (centres unmarked) (as salt: HCl) [Example 574], for which the melting point is 189 to 190 °C.

In the case of `COc1cccc(COc2cccc(S(=O)(=O)c3ccc4c(c3)OC3CNCCC43)c2)c1` (centres unmarked) (as salt: HCl) [Example 575], the melting point lay within 247 to 248 °C.

For the compound `COCCCOc1cccc(S(=O)(=O)c2ccc3c(c2)OC2CNCCC32)c1` (centres unmarked) (as salt: HCl) [Example 576], the melting point fell in the range of 179 to 181 °C.

The compound `O=S(=O)(c1cccc(OCC2CCCO2)c1)c1ccc2c(c1)OC1CNCCC21` (centres unmarked) (as salt: HCl) [Example 577] showed a melting point of 205 to 206 °C.

Consider `O=S(=O)(c1cccc(OCC(F)F)c1)c1ccc2c(c1)OC1CNCCC21` (centres unmarked) (as salt: HCl) [Example 578], for which the melting point lay in the range of 263 to 266 °C.

`O=S(=O)(c1cccc(Oc2ccccn2)c1)c1ccc2c(c1)OC1CNCCC21` (centres unmarked) (as salt: HCl) [Example 579]: the melting point is 198 to 203 °C.

Consider `O=S(=O)(c1cccc(Oc2cnccn2)c1)c1ccc2c(c1)OC1CNCCC21` (centres unmarked) (as salt: HCl) [Example 580], for which the melting point is 234 to 236 °C.

As to `O=S(=O)(c1cccc(OCC2CCOCC2)c1)c1ccc2c(c1)OC1CNCCC21` (centres unmarked) (as salt: HCl) [Example 581, 7-{[3-(tetrahydro-2H-pyran-4-ylmethoxy)phenyl]sulfonyl}-1,2,3,4,4a,9a-hexahydro[1]benzofuro[2,3-c]pyridine], the melting point fell in the range of 186 to 188 °C.

Consider `Cc1c(OCC2CCOCC2)cccc1S(=O)(=O)c1ccc2c(c1)OC1CNCCC21` (centres unmarked) (as salt: HCl) [Example 582], for which the melting point fell in the range of 201 to 202 °C.

For `COc1cc(OC2CCC2)cc(S(=O)(=O)c2ccc3c(c2)OC2CNCCC32)c1` (centres unmarked) (as salt: HCl) [Example 583], the melting point was 218 to 220 °C.

With `COc1cc(OCC2CCOCC2)cc(S(=O)(=O)c2ccc3c(c2)OC2CNCCC32)c1` (centres unmarked) (as salt: HCl) [Example 584], the melting point lay in the range of 207 to 208 °C.

Regarding `COc1cc(OCC2CC2)cc(S(=O)(=O)c2ccc3c(c2)OC2CNCCC32)c1` (centres unmarked) (as salt: HCl) [Example 585], the melting point fell in the range of 224 to 225 °C.

On to `COc1cc(OC2CCCC2)cc(S(=O)(=O)c2ccc3c(c2)OC2CNCCC32)c1` (centres unmarked) (as salt: HCl) [Example 586], for which the melting point fell in the range of 239 to 241 °C.

Take `COCCCOc1cc(OC(C)C)cc(S(=O)(=O)c2ccc3c(c2)OC2CNCCC32)c1` (centres unmarked) (as salt: HCl) [Example 588]: the melting point fell in the range of 164 to 166 °C.

Regarding `CC(C)Oc1cc(OC(CO)CCl)cc(S(=O)(=O)c2ccc3c(c2)OC2CNCCC32)c1` (centres unmarked) (as salt: HCl) [Example 589], the melting point was 211 to 213 °C (dec.).

On to `CC(C)Oc1cc(OCCO)cc(S(=O)(=O)c2ccc3c(c2)OC2CNCCC32)c1` (centres unmarked) (as salt: HCl) [Example 590], for which the melting point was 205 to 208 °C.

`O=S(=O)(c1cc(F)cc(OCC2CCOCC2)c1)c1ccc2c(c1)OC1CNCCC21` (centres unmarked) (as salt: HCl) [Example 591]: the melting point is 203 to 204 °C.

Take `CC(=O)NCC1(C)NCCc2c1oc1cc(S(=O)(=O)c3cccc(F)c3)ccc21` (centres unmarked) (as salt: HCl) [Example 631, N-({7-[(3-fluorophenyl)sulfonyl]-1-methyl-1,2,3,4-tetrahydro[1]benzofuro[2,3-c]pyridin-1-yl}methyl)acetamide]: the melting point was 217 to 227 °C.

Compound `CC(=O)NCC1(C)NCCc2c1oc1cc(S(=O)(=O)c3cccc(F)c3)ccc21` (centres unmarked) (as salt: HCl) [Example 632, N-({7-[(3-fluorophenyl)sulfonyl]-1-methyl-1,2,3,4-tetrahydro[1]benzofuro[2,3-c]pyridin-1-yl}methyl)acetamide] gave a melting point of 210 to 260 °C.

Consider `CC12CCNCC1Oc1ccc(S(=O)(=O)c3ccccc3)cc12` (centres unmarked) (as salt: hydrochloride) [Example 62, 4a-Methyl-6-(phenylsulfonyl)-1,2,3,4,4a,9a-hexahydro[1]benzofuro[2,3-c]pyridine hydrochloride], for which the melting point was 236 to 238 °C (dec.).

With `CN(C)C(=O)c1cccc(S(=O)(=O)c2ccc3c4c(oc3c2)CNCC4)c1` (as salt: hydrochloride) [Example 474, N,N-Dimethyl-3-(1,2,3,4-tetrahydro[1]benzofuro[2,3-c]pyridin-7-ylsulfonyl)benzamide hydrochloride], the melting point was in the range of 262 to 265 °C.

The compound `COc1ccccc1S(=O)(=O)c1ccc2c(c1)OC1CNCCC21C` (racemic) (as salt: HCl) [Example 3, 7-[(2-methoxyphenyl)sulfonyl]-4a-methyl-1,2,3,4,4a,9a-hexahydro[1]benzofuro[2,3-c]pyridine] gave a melting point of 222 to 224 °C.

Compound `COc1cccc(S(=O)(=O)c2ccc3c(c2)OC2CNCCC32C)c1` (racemic) (as salt: HCl) [Example 4, 7-[(3-methoxyphenyl)sulfonyl]-4a-methyl-1,2,3,4,4a,9a-hexahydro[1]benzofuro[2,3-c]pyridine] displayed a melting point of 279 to 280 °C.

The compound `COc1ccc(S(=O)(=O)c2ccc3c(c2)OC2CNCCC32C)cc1` (racemic) (as salt: HCl) [Example 5, 7-[(4-methoxyphenyl)sulfonyl]-4a-methyl-1,2,3,4,4a,9a-hexahydro[1]benzofuro[2,3-c]pyridine] yielded a melting point of 283 to 284 °C.

Compound `Cc1cccc(S(=O)(=O)c2ccc3c(c2)OC2CNCCC32C)n1` (racemic) (as salt: HCl) [Example 6, 4a-methyl-7-[(6-methylpyridin-2-yl)sulfonyl]-1,2,3,4,4a,9a-hexahydro[1]benzofuro[2,3-c]pyridine] had a melting point of 255 to 258 °C.

`Cc1ccnc(S(=O)(=O)c2ccc3c(c2)OC2CNCCC32C)n1` (racemic) (as salt: HCl) [Example 7, 4a-methyl-7-[(4-methylpyrimidin-2-yl)sulfonyl]-1,2,3,4,4a,9a-hexahydro[1]benzofuro[2,3-c]pyridine]: the melting point fell in the range of 199 to 201 °C.

`CC12CCNCC1Oc1cc(S(=O)(=O)c3ccccn3)ccc12` (racemic) (as salt: HCl) [Example 8, 4a-methyl-7-(pyridin-2-ylsulfonyl)-1,2,3,4,4a,9a-hexahydro[1]benzofuro[2,3-c]pyridine]: the melting point is 282 to 283 °C.

`CC12CCNCC1Oc1cc(S(=O)(=O)c3ncccn3)ccc12` (racemic) (as salt: HCl) [Example 9, 4a-methyl-7-(pyrimidin-2-ylsulfonyl)-1,2,3,4,4a,9a-hexahydro[1]benzofuro[2,3-c]pyridine] registered a melting point of 232 to 234 °C.

Take `CCOc1cccc(S(=O)(=O)c2ccc3c(c2)OC2CNCCC32C)c1` (racemic) (as salt: HCl) [Example 10, 7-[(3-ethoxyphenyl)sulfonyl]-4a-methyl-1,2,3,4,4a,9a-hexahydro[1]benzofuro[2,3-c]pyridine]: the melting point lay within 271 to 273 °C.

As to `CC12CCNCC1Oc1cc(S(=O)(=O)c3cccc(F)c3)ccc12` (racemic) (as salt: HCl) [Example 11, 7-[(3-fluorophenyl)sulfonyl]-4a-methyl-1,2,3,4,4a,9a-hexahydro[1]benzofuro[2,3-c]pyridine], the melting point was in the range of 288 to 290 °C.

Consider `CC(C)Oc1cccc(S(=O)(=O)c2ccc3c(c2)OC2CNCCC32C)c1` (racemic) (as salt: HCl) [Example 12, 4a-methyl-7-{[3-(propan-2-yloxy)phenyl]sulfonyl}-1,2,3,4,4a,9a-hexahydro[1]benzofuro[2,3-c]pyridine], for which the melting point was 206 to 208 °C.

As for `CC12CCNCC1Oc1ccc(S(=O)(=O)c3ccncc3)cc12` (racemic) (as salt: HCl) [Example 13, 4a-methyl-6-(pyridin-4-ylsulfonyl)-1,2,3,4,4a,9a-hexahydro[1]benzofuro[2,3-c]pyridine], the melting point was 186 to 188 °C.

The compound `CC12CCNCC1Oc1ccc(S(=O)(=O)c3cc[n+]([O-])cc3)cc12` (racemic) (as salt: HCl) [Example 14, 4a-methyl-6-[(1-oxidopyridin-4-yl)sulfonyl]-1,2,3,4,4a,9a-hexahydro[1]benzofuro[2,3-c]pyridine] displayed a melting point of 207 to 210 °C.
